From patent publication US20040191287A1, “Fumigation process for stored food grains” (priority 2003, published 2004)
Where two headings read alike, the source gives them in different places.

Key:
[1] = tested on: R. dominica mixed-age cultures; experiment: Mixed-age cultures exposed to allyl acetate in desiccators (Example 3); type: in vivo; settings: Rhyzopertha dominica, read-out: Mortality (%) (Mean ± SD); for mortality at 25 µg/mL: 25 mg/liter; for mortality at 50 µg/mL: 50 mg/liter; for mortality at 100 µg/mL: 100 mg/liter; for mortality at 150 µg/mL: 150 mg/liter
Description: (§1) The grain/ flour containing mixed- age culture of the insect was weighted into 15 cm diameter paper plates in 50 gm aliquots and kept in 0.85 litre desiccators. A 9 cm size Whatman No.1 filter circle was placed in each desiccator to act as evaporating surface for allyl acetate when injected. The insects were exposed to 4 doses of allyl acetate i.e., 25, 50, 100 and 150 mg/liter. Allyl acetate was drawn from the bottle using 100 and 250 micro liter liquid syringes and injected into the desiccators, so that the liquid falls on the filter circle inside the desiccator. There were three replicates each for each dose and for each exposure period. […] Insects emerged from wheat (S. oryzae and R. dominica) or survived in wheat flour (T. castaneum) samples were checked at weekly intervals for 8 weeks. Similarly, counts were made in untreated control batches. Mortality in treated batches was determined by taking into account of survival/emergence in controls as 100%. […] For example, allyl acetate at 25 mg/litre with 48-hour exposure caused 99.8% kill in R. dominica whereas, 85.1 and 86.5% mortality was recorded, respectively, in S. oryzae and T. castaneum.

[2] = tested on: S. oryzae mixed-age cultures; experiment: as above; type: in vivo; settings: Sitophilus oryzae, read-out: Mortality (%) (Mean ± SD); for mortality at 25 µg/mL: 25 mg/liter; for mortality at 50 µg/mL: 50 mg/liter; for mortality at 100 µg/mL: 100 mg/liter; for mortality at 150 µg/mL: 150 mg/liter
Description: as §1

[3] = tested on: T. castaneum mixed-age cultures; experiment: as above; type: in vivo; settings: Tribolium castaneum, read-out: Mortality (%) (Mean ± SD); for mortality at 25 µg/mL: 25 mg/liter; for mortality at 50 µg/mL: 50 mg/liter; for mortality at 100 µg/mL: 100 mg/liter; for mortality at 150 µg/mL: 150 mg/liter
Description: as §1

[4] = tested on: S. oryzae mixed-age cultures; experiment: Fumigation in 125 litre plastic drums with 100 kg wheat, with/without perforated tubing (Example 6); type: in vivo, Sitophilus oryzae; settings: for Insect Survivors / mortality at 200 µg/mL: S. oryzae, 200 mg/liter, 72 hours, 26 ± 2° C., 125 liter drum, 100 kg wheat; for mortality at 200 µg/mL: 72 h, read-out: % mortality based on survivors in untreated controls
Description: In another set of experiments, fumigations were carried out in the plastic drums with 100 kg […] acetate (27 ml of liquid) was dispensed at one location, that is, on the top layer of the grain. In both sets of experiments, there were 3 replicates for control and fumigated batches.
Insect mortality in fumigated batches was determined by taking into consideration of survivors in respective controls as 100%.

[5] = cited from earlier work
[6] = cited from earlier work; remark: listed apart in the source
[7] = tested on: R. dominica mixed-age cultures; settings: 72 hours at 26±2° C., 19.5 liter tin container with 12 kg wheat
Description: (§2) Fumigation experiments with allyl acetate have been conducted in 19.5 litre capacity tin containers with mixed- age cultures of R. dominica, S. oryzae and T. castaneum as the test insects.
(§3) Mixed-age cultures of S. oryzae and R. dominica were obtained by allowing 300 adults of the individual species to breed in about 1 kg of wheat in a 2-liter glass jar. To obtain mixed- age culture of T. castaneum about 300 adults were released into 1 kg of whole-wheat flour plus 5% dried yeast in a 2-litre glass jar. The insect culture jars were kept under the rearing temperature conditions i.e., 25±1° C. for S. oryzae and T. castaneum and 30±1° C. for R. dominica.
(§4) The infested grain/flour after an incubation period of 7 weeks was used for the experiment. The cultures were weighed into 50 gm aliquots in 21 cm×14 cm size cloth bags. One set of three test insect bags comprising R. dominica, S. oryzae and T. castaneum were kept at the bottom of the container before filling the grain.
(§5) Another set of three-test insect bags was kept on the top layer of grains. The grain-filled containers were, then, fumigated with allyl acetate for 72 hours at 26±2° C. There were 6 doses ranging from 100 to 800 mg/litre with 3 replicates/dosage along with untreated controls. Required quantity of allyl acetate was measured in 10 and 25 ml measuring cylinder and quickly poured on to 5 gm of absorbent cotton wool kept over the grain layer in the tin container.
(§6) Immediately after dosing, the container was closed with the lid tightly and sealed along the rim with adhesive tape. At the end of 72 hour, the lid was removed to aerate the commodity and the test insect bags were retrieved and the contents transferred to 300 ml capacity glass bottles.
(§7) Insect survivors in the samples were recorded at weekly intervals for 8 weeks. Mortality in fumigated batches was calculated based on emergence/survivors in controls.

[8] = tested on: T. castaneum mixed-age cultures; settings: 72 hours at 26±2° C., 19.5 liter tin container with 12 kg wheat
Description: as §2, §3, §4, §5, §6, §7

[9] = tested on: S. oryzae mixed-age cultures; settings: 200 mg/liter, 26 ± 2° C., 19.5 liter tin container with 12 kg of wheat
Description: (§8) Further fumigation tests were carried out with allyl acetate at 200 mg/litre and with three different exposure periods of 24, 48 and 72 hours in 19.5 litre tin containers filled with 12 kg of wheat. Mixed- age cultures of R. dominica, S. oryzae and T. castaneum were used as the test insects.
(§9) Mixed-age cultures of S. oryzae and R. dominica were obtained by allowing 300 adults of the individual species to breed in about 1 kg of wheat in a 2-liter glass jar. To obtain mixed- age culture of T. castaneum about 300 adults were released into 1 kg of whole-wheat flour plus 5% dried yeast in a 2-litre glass jar. The insect culture jars were kept under the rearing temperature conditions i.e., 25±1° C. for S. oryzae and T. castaneum and 30±1° C. for R. dominica. The infested grain/flour after an incubation period of 7 weeks was used for the experiment. The cultures were weighed into 50 gm aliquots in 21 cm×14 cm size cloth bags. One set of three test insect bags comprising R. dominica, S. oryzae and T. castaneum were kept at the bottom of the container before filling the grain. […] Another set of three-test insect bags was kept on the top layer of grains. The grain-filled containers were, then, fumigated with allyl acetate for 24, 48 and 72 hours at 26±2° C. The commodity was treated with allyl acetate at the dosage of 200 mg/litre. Required quantity of allyl acetate was measured in 10 and 25 ml measuring cylinder and quickly poured on to 5 gm of absorbent cotton wool kept over the grain layer in the tin container. Immediately after dosing, the container was closed with the lid tightly and sealed along the rim with adhesive tape. At the end of the exposure period, the lid was removed to aerate the commodity and the test insect bags were retrieved and the contents transferred to 300 ml capacity glass bottles. Insect survivors in the samples were recorded at weekly intervals for 8 weeks. Mortality in fumigated batches was calculated based on emergence/survivors in controls.

[10] = tested on: R. dominica mixed-age cultures; settings: 200 mg/liter, 26 ± 2° C., 19.5 liter tin container with 12 kg of wheat
Description: as §8, §9

[11] = tested on: T. castaneum mixed-age cultures; settings: 200 mg/liter, 26 ± 2° C., 19.5 liter tin container with 12 kg of wheat
Description: as §8, §9

C=CCOC(C)=O [allyl acetate]
mortality at 25 µg/mL ([1]; 24 hours exposure): 99.8 ± 0.3%
mortality at 50 µg/mL ([1]; 24 hours exposure): 100%
mortality at 100 µg/mL ([1]; 24 hours exposure): 100%
mortality at 150 µg/mL ([1]; 24 hours exposure): 100%
mortality at 25 µg/mL ([1]; 48 hours exposure): 99.8%
mortality at 50 µg/mL ([1]; 48 hours exposure): 99.8 ± 0.4%
mortality at 100 µg/mL ([1]; 48 hours exposure): 100%
mortality at 150 µg/mL ([1]; 48 hours exposure): 100%
mortality at 25 µg/mL ([1]; 120 hours exposure): 99.8 ± 0.5%
mortality at 50 µg/mL ([1]; 120 hours exposure): 100%
mortality at 100 µg/mL ([1]; 120 hours exposure): 100%
mortality at 150 µg/mL ([1]; 120 hours exposure): 100%
mortality at 25 µg/mL ([2]; 24 hours exposure): 87.9 ± 4.1%
mortality at 50 µg/mL ([2]; 24 hours exposure): 98 ± 1.5%
mortality at 100 µg/mL ([2]; 24 hours exposure): 100%
mortality at 150 µg/mL ([2]; 24 hours exposure): 100%
mortality at 25 µg/mL ([2]; 48 hours exposure): 85.1%
mortality at 50 µg/mL ([2]; 48 hours exposure): 98.9 ± 1.3%
mortality at 100 µg/mL ([2]; 48 hours exposure): 100%
mortality at 150 µg/mL ([2]; 48 hours exposure): 100%
mortality at 25 µg/mL ([2]; 120 hours exposure): 98.8 ± 1.8%
mortality at 50 µg/mL ([2]; 120 hours exposure): 100%
mortality at 100 µg/mL ([2]; 120 hours exposure): 100%
mortality at 150 µg/mL ([2]; 120 hours exposure): 100%
mortality at 25 µg/mL ([3]; 24 hours exposure): 0%
mortality at 50 µg/mL ([3]; 24 hours exposure): 82.6 ± 17.8%
mortality at 100 µg/mL ([3]; 24 hours exposure): 98.4 ± 3.3%
mortality at 150 µg/mL ([3]; 24 hours exposure): 99.2 ± 1.7%
mortality at 25 µg/mL ([3]; 48 hours exposure): 86.5%
mortality at 50 µg/mL ([3]; 48 hours exposure): 100%
mortality at 100 µg/mL ([3]; 48 hours exposure): 100%
mortality at 150 µg/mL ([3]; 48 hours exposure): 100%
mortality at 25 µg/mL ([3]; 120 hours exposure): 51.4 ± 11.6%
mortality at 50 µg/mL ([3]; 120 hours exposure): 73.4 ± 17.7%
mortality at 100 µg/mL ([3]; 120 hours exposure): 97.3 ± 3.2%
mortality at 150 µg/mL ([3]; 120 hours exposure): 100%
Insect Survivors ([4]; with perforated tubing, test insect bag at bottom layer): 0
Insect Survivors ([4]; with perforated tubing, test insect bag at middle layer): 0
Insect Survivors ([4]; with perforated tubing, test insect bag at top layer): 0
Insect Survivors ([4]; without perforated tubing, test insect bag at bottom layer): 22.33
Insect Survivors ([4]; without perforated tubing, test insect bag at middle layer): 0.33
Insect Survivors ([4]; without perforated tubing, test insect bag at top layer): 0
mortality at 200 µg/mL ([4]; Sitophilus oryzae, with perforated tubing, bottom layer): 100%
mortality at 200 µg/mL ([4]; Sitophilus oryzae, with perforated tubing, middle layer): 100%
mortality at 200 µg/mL ([4]; Sitophilus oryzae, with perforated tubing, top layer): 100%
mortality at 200 µg/mL ([4]; Sitophilus oryzae, without perforated tubing, bottom layer): 95.3%
mortality at 200 µg/mL ([4]; Sitophilus oryzae, without perforated tubing, middle layer): 99.9%
mortality at 200 µg/mL ([4]; Sitophilus oryzae, without perforated tubing, top layer): 100%
dosage for 100% kill of all stages ([4]; Sitophilus oryzae, all stages, preferred exposure period 72 hours): 200 mg per litre of space
Mammalian Toxicity (irritation) ([5]; eyes, respiratory system and skin): Irritating to eyes, respiratory
Mammalian Toxicity ([5]; routes of toxicity: inhalation, contact and ingestion): Toxic by inhalation,
Vapour pressure at 27° C. (mm Hg) ([6]; 27° C.): 6 mm Hg
Solubility in water [6]: Insoluble
% mortality based on survivors in controls ([7]; 100 mg/liter): (100) %
No. of survivors from 50 g lots of mixed-age cultures following treatment ([7]; 100 mg/liter): 0
% mortality based on survivors in controls ([7]; 150 mg/liter): (100) %
No. of survivors from 50 g lots of mixed-age cultures following treatment ([7]; 150 mg/liter): 0
% mortality based on survivors in controls ([7]; 200 mg/liter): (100) %
No. of survivors from 50 g lots of mixed-age cultures following treatment ([7]; 200 mg/liter): 0
% mortality based on survivors in controls ([7]; 400 mg/liter): (100) %
No. of survivors from 50 g lots of mixed-age cultures following treatment ([7]; 400 mg/liter): 0
% mortality based on survivors in controls ([7]; 600 mg/liter): (100) %
No. of survivors from 50 g lots of mixed-age cultures following treatment ([7]; 600 mg/liter): 0
% mortality based on survivors in controls ([7]; 800 mg/liter): (100) %
No. of survivors from 50 g lots of mixed-age cultures following treatment ([7]; 800 mg/liter): 0
% mortality based on survivors in controls ([8]; 100 mg/liter): (100) %
No. of survivors from 50 g lots of mixed-age cultures following treatment ([8]; 100 mg/liter): 0
% mortality based on survivors in controls ([8]; 150 mg/liter): (100) %
No. of survivors from 50 g lots of mixed-age cultures following treatment ([8]; 150 mg/liter): 0
% mortality based on survivors in controls ([8]; 200 mg/liter): (100) %
No. of survivors from 50 g lots of mixed-age cultures following treatment ([8]; 200 mg/liter): 0
% mortality based on survivors in controls ([8]; 400 mg/liter): (100) %
No. of survivors from 50 g lots of mixed-age cultures following treatment ([8]; 400 mg/liter): 0
% mortality based on survivors in controls ([8]; 600 mg/liter): (100) %
No. of survivors from 50 g lots of mixed-age cultures following treatment ([8]; 600 mg/liter): 0
% mortality based on survivors in controls ([8]; 800 mg/liter): (100) %
No. of survivors from 50 g lots of mixed-age cultures following treatment ([8]; 800 mg/liter): 0
% mortality based on survivors in controls ([9]; exposure period 24 hour): (99.9) %
No. of survivors from 50 g lots of mixed-age cultures following treatment ([9]; exposure period 24 hour): 0.33
% mortality based on survivors in controls ([9]; exposure period 48 hour): (99.9) %
No. of survivors from 50 g lots of mixed-age cultures following treatment ([9]; exposure period 48 hour): 0.33
% mortality based on survivors in controls ([9]; exposure period 72 hour): (100) %
No. of survivors from 50 g lots of mixed-age cultures following treatment ([9]; exposure period 72 hour): 0
% mortality based on survivors in controls ([10]; exposure period 24 hour): (100) %
No. of survivors from 50 g lots of mixed-age cultures following treatment ([10]; exposure period 24 hour): 0
% mortality based on survivors in controls ([10]; exposure period 48 hour): (100) %
No. of survivors from 50 g lots of mixed-age cultures following treatment ([10]; exposure period 48 hour): 0
% mortality based on survivors in controls ([10]; exposure period 72 hour): (100) %
No. of survivors from 50 g lots of mixed-age cultures following treatment ([10]; exposure period 72 hour): 0
% mortality based on survivors in controls ([11]; exposure period 24 hour): (100) %
No. of survivors from 50 g lots of mixed-age cultures following treatment ([11]; exposure period 24 hour): 0
% mortality based on survivors in controls ([11]; exposure period 48 hour): (100) %
No. of survivors from 50 g lots of mixed-age cultures following treatment ([11]; exposure period 48 hour): 0
% mortality based on survivors in controls ([11]; exposure period 72 hour): (100) %
No. of survivors from 50 g lots of mixed-age cultures following treatment ([11]; exposure period 72 hour): 0
